This note sets out measurements from patent US20250214960A1, “COMPOUNDS HAVING ACTIVITY OF DEGRADING GSPT1 AND APPLICATION THEREOF” (SHANGHAI MEIZER PHARMACEUTICALS CO., LTD., priority 2021, published 2025).

What all share (type): cell-based
In one experiment the test system is HNT-34 cells. Description: CTG method, inhibition of HNT-34 cell proliferation. The note with it: HNT-34, 72 hours; read-out: Cellular proliferation inhibition IC50. On the procedure:
(§1) Test Example 2: CTG Method for Detecting the Inhibitory Effect of Compounds of Formula on the Proliferation of HNT 34 or HL-60 Cells
(§2) HNT-34 or HL-60 cells were taken and cultured in RPMI1640 medium containing 20% fetal bovine serum. The cells were inoculated on a 96 well plate, with 1×10^4 cells per well, and incubated at 37° C. in a […] incubator. After adding the test compound, it was incubated for 72 hours. Then an appropriate amount of CTG reagent was added, the luminescence value was measured, and the inhibition rate was calculated.

Another experiment concerns the target T1, GSPT1 protein (Homo sapiens, UniProt P15170+Q96SW2).
T1 construct: endogenous in cells; host or cells: Jeko-1
Description: Western blot detection of degradation activity of GSPT1 protein in Jeko-1 cells. The note with it: JeKo-1, 24 h, read-out: GSPT1 degradation rate (%). On the procedure: Test Example 1: Western Blot Detection of Degradation Activity of GSPT1 Protein by the Compounds
Cell line: Jeko-1 cell line was cultured with an RPMI1640 media containing 20% fetal bovine serum in an incubator at 37° C., 5% CO2, and saturated humidity.
DMSO control group and test compound (concentration shown in the table below) were set up, after processing for 24 hours, the cells were collected, pre-cooled cell lysate was added and left on ice for 10 minutes. The total protein of the cells was extracted, and the protein concentration was measured and quantified using the BCA method. Routine gel preparation, sample loading, electrophoresis were conducted, then the membrane was transferred, and sealed, wherein the primary antibody was diluted with a blocking solution at 1:500-5000. The membrane was immersed in the diluted primary antibody and incubated overnight at 4° C. After rinsing, the secondary antibody was diluted with a sealing solution at 1:10000-20000, the membrane was immersed in the diluted secondary antibody, and incubated at room temperature for 45 minutes. After rinsing, the results were tested on ODYSSEY (Li-COR). GAPDH was used as an internal reference control.
Image J software was used to perform gray level analysis on each band and the degradation rate of GSPT1 protein by the compounds was calculated.
Background: In western blotting, separated proteins are transferred to a membrane and probed.

Another experiment concerns HL-60 cells. Description: CTG method, inhibition of HL-60 cell proliferation. The note with it: Homo sapiens; HL-60, 72 hours; read-out: Cellular proliferation inhibition IC50. On the procedure:
as §1, §2

SMILES strings stand for the structures. Where two headings read alike, the source gives them in different places.

T1 sequence (P15170 whole entry): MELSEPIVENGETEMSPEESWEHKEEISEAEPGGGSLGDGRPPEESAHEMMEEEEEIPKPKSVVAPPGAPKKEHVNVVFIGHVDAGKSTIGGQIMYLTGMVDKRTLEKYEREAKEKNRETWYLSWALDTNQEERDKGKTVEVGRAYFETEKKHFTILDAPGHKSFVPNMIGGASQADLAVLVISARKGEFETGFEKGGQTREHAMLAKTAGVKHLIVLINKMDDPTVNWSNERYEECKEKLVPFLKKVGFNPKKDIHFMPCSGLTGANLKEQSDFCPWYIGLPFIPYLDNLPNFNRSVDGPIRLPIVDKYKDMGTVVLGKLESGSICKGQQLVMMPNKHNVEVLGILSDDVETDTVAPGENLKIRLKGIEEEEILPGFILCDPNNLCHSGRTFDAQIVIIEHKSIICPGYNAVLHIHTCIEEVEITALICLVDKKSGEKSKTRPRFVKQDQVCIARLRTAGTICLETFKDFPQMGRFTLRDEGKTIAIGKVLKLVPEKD
T1 sequence (Q96SW2 whole entry): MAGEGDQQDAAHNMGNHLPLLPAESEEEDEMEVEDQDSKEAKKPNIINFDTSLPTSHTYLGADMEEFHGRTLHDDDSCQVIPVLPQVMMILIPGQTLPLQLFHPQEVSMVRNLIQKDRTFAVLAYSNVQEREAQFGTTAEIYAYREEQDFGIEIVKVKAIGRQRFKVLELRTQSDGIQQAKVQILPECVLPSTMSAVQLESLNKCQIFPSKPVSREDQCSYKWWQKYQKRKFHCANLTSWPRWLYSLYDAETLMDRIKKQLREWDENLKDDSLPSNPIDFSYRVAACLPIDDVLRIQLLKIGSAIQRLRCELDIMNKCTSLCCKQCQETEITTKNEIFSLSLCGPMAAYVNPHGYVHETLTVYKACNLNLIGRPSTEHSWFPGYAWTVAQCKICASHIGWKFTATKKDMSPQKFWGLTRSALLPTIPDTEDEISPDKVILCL
T1 sequence (Q16531 whole entry partner): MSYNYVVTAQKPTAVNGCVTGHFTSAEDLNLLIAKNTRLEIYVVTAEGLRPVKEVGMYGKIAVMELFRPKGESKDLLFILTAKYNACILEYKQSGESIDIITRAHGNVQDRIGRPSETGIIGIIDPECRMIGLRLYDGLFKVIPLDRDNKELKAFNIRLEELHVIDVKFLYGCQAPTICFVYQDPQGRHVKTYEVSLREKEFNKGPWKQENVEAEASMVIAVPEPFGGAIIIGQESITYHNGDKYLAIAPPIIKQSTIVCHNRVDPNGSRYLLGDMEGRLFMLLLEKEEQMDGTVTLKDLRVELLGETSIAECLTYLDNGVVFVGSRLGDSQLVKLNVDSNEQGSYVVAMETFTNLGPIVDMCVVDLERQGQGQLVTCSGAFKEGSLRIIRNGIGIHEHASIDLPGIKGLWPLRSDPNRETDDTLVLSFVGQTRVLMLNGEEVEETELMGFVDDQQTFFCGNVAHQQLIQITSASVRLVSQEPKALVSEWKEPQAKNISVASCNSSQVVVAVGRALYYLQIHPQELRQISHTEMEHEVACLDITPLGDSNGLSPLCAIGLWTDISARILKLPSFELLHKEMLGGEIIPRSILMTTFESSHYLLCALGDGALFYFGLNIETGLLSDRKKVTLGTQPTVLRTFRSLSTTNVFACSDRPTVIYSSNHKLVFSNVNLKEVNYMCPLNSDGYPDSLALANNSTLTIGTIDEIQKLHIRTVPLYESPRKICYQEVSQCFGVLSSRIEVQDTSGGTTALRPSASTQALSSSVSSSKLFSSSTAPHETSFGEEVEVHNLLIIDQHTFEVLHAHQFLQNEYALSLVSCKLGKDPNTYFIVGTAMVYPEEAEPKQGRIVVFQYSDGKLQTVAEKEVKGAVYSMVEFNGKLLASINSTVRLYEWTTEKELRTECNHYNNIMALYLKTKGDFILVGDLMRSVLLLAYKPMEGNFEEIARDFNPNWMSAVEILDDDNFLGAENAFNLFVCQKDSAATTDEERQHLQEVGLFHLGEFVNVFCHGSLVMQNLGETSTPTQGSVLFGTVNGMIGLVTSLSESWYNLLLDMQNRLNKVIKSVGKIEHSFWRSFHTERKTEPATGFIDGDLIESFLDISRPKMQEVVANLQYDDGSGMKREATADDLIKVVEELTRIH

Turning to `CC[C@H](C)[C@@H](CC(=O)NCc1ccc2c(c1)CN(C1CCC(=O)NC1=O)C2=O)NC(=O)OC(C)(C)C` (stereo partly drawn) [Compound 5-97, Tert butyl ((3R,4S)-1-((2-(2,6-dioxypiperidin-3-yl)-1-oxoisoidoline-5-yl)methyl)amino)-4-methyl-1-oxohexane-3-yl) carbamate], the figures for the IC50 with HNT-34 cells and with HL-60 cells were 6.9 nM and 11 nM, respectively. For the same compound, the inhibition at 0.1 µM on GSPT1 protein (100 nM, Jeko-1 cells, 24 hours) worked out at 97%. Besides, the inhibition at 10 µM on GSPT1 protein (10 μM, Jeko-1 cells, 24 hours) is 98%.
With `O=C1CCC(N2Cc3cc(CNC(=O)C(CNC(=O)Oc4ccccc4)c4ccccc4)ccc3C2=O)C(=O)N1` (stereo not shown) [Compound 5-10, Phenyl (3-((2-(2,6-dioxypiperidin-3-yl)-1-oxoisoindolin-5-yl)methyl)amino)-3-oxo-2-phenylpropyl) carbamate], the IC50 in the experiment with HNT-34 cells came to 36.9 nM. On GSPT1 protein, the inhibition at 0.1 µM worked out at 73% and the inhibition at 10 µM was 90%. Also, the IC50 with HL-60 cells was found to be 37.7 nM.
In the case of `CCN(C(=O)OC(C)(C)C)[C@H](C(=O)NCc1ccc2c(c1)CN(C1CCC(=O)NC1=O)C2=O)c1ccccc1` (stereo partly drawn) [Compound 1-89, Tert butyl ((1S)-2-((2-(2,6-dioxypiperidin-3-yl)-1-oxoisoindoline-5-yl)methyl)amino)-2-oxo-1-phenylethy 1) (ethyl) carbamate], the IC50 in the experiment with HNT-34 cells was 3.8 nM; in the experiment on HL-60 cells, 5 nM. In addition, at GSPT1 protein (100 nM, Jeko-1 cells, 24 hours), the inhibition at 0.1 µM was 97.8%. Also, on GSPT1 protein (10 μM, Jeko-1 cells, 24 hours), the inhibition at 10 µM amounted to 98.7%.
The like results for `O=C1CCC(N2Cc3cc(CNC(=O)[C@H](CC4CCCCC4)NC(=O)CC4CCCC4)ccc3C2=O)C(=O)N1` (stereo partly drawn) [Compound 5-92, (2S)-3-cyclohexyl-2-(2-cyclopentylacetamido)-N-((2-(2,6-dioxypiperidin-3-yl)-1-oxoisoindoline-5-yl)methyl) propionamide] were, in that order, 25.2 nM, 25.2 nM, 79% and 97%.
`Cc1ccc([C@H](NC(=O)OC(C)(C)C)C(=O)NCc2ccc3c(c2)CN(C2CCC(=O)NC2=O)C3=O)cc1` (stereo partly drawn) [Compound 4-166, Tert butyl ((1S)-2-((2-(2,6-dioxypiperidin-3-yl)-1-oxoisoindoline-5-yl)methyl)amino)-2-oxo-1-(p-tolyl) ethyl) carbamate]: the IC50 in the experiment on HNT-34 cells was 11.3 nM; in the experiment with HL-60 cells, 12.8 nM. At GSPT1 protein (100 nM, Jeko-1 cells, 24 hours), the inhibition at 0.1 µM came to 82%. In addition, the inhibition at 10 µM on GSPT1 protein (10 μM, Jeko-1 cells, 24 hours) stood at 93%.
For the compound `CC(C)(C)OC(=O)N[C@H](C(=O)NCc1ccc2c(c1)CN([C@H]1CCC(=O)NC1=O)C2=O)c1ccccc1Cl` [Compound 5-17b, Tert butyl ((1S)-1-(2-chlorophenyl)-2-((2-((S)-2,6-dioxopyridin-3-yl)-1-oxoisoidoline-5-yl)methyl)amino)-2-oxoethyl) carbamate], at GSPT1 protein (10 nM, Jeko-1 cells, 24 hours), the inhibition at 0.01 µM turned out to be 57%. For the same compound, the inhibition at 1 µM on GSPT1 protein (1 μM, Jeko-1 cells, 24 hours) was determined as 100%. Moreover, the IC50 in the experiment on HL-60 cells turned out to be 4.6 nM.
Consider `CN(C(=O)CC1CCCC1)[C@H](C(=O)NCc1ccc2c(c1)CN(C1CCC(=O)NC1=O)C2=O)c1ccccc1` (stereo partly shown) [Compound 5-50], for which the IC50 with HNT-34 cells is 5.8 nM; with HL-60 cells, 6.9 nM. For the same compound, the inhibition at 0.1 µM on GSPT1 protein (100 nM, Jeko-1 cells, 24 hours) came out at 94.9%. The inhibition at 10 µM at GSPT1 protein (10 μM, Jeko-1 cells, 24 hours) turned out to be 96.9%.
In the case of `CC(C)(C)OC(=O)N[C@H](C(=O)NCc1ccc2c(c1)CN(C1CCC(=O)NC1=O)C2=O)c1ccc(F)cc1` (stereo partly drawn) [Compound 4-136, Tert butyl ((1S)-2-((2-(2,6-dioxypiperidin-3-yl)-1-oxoisoidoline-5-yl)methyl)amino)-1-(4-fluorophenyl)-2-oxoethyl) carbamate], the IC50 in the experiment on HNT-34 cells was found to be 3.6 nM. Further, the inhibition at 0.1 µM on GSPT1 protein (100 nM, Jeko-1 cells, 24 hours) is 82%. In addition, at GSPT1 protein (10 μM, Jeko-1 cells, 24 hours), the inhibition at 10 µM is 97%.
As to `CC(C)(C)OC(=O)N[C@H](C(=O)NCc1ccc2c(c1)CN(C1CCC(=O)NC1=O)C2=O)c1ccc2ccccc2c1` (stereo partly drawn) [Compound 4-133, tert butyl ((1S)-2-((2-(2,6-dioxypiperidin-3-yl)-1-oxoisoidoline-5-yl)methyl)amino)-1-(naphthalene-2-yl)-2-oxoethyl) carbamate], the results for the IC50 in the experiment with HNT-34 cells and in the experiment on HL-60 cells were 3.2 nM and 14.3 nM, respectively. In addition, the inhibition at 0.1 µM at GSPT1 protein (100 nM, Jeko-1 cells, 24 hours) came to 79%. On GSPT1 protein (10 μM, Jeko-1 cells, 24 hours), the inhibition at 10 µM was determined as 86%.
Consider `CC(C)(C)OC(=O)N[C@H](C(=O)NCc1ccc2c(c1)CN(C1CCC(=O)NC1=O)C2=O)C1CCCCC1` (stereo partly drawn) [Compound 5-56, Tert butyl ((1S)-1-cyclohexyl-2-((2-(2,6-dioxopyridin-3-yl)-1-oxoisoidoline-5-yl)methyl)amino)-2-oxoethyl) carbamate], for which the IC50 with HNT-34 cells turned out to be 18 nM; in the experiment on HL-60 cells it was 25.8 nM. The inhibition at 0.1 µM at GSPT1 protein (100 nM, Jeko-1 cells, 24 hours) was found to be 18.8%. Moreover, the inhibition at 10 µM at GSPT1 protein (10 μM, Jeko-1 cells, 24 hours) worked out at 84.1%.
Consider `CC(C)CC(CNC(=O)OC(C)(C)C)C(=O)NCc1ccc2c(c1)CN(C1CCC(=O)NC1=O)C2=O` (stereo not shown) [Compound 5-33], for which the IC50 in the experiment on HNT-34 cells is 32.7 nM; with HL-60 cells it was 35.4 nM. The inhibition at 0.1 µM at GSPT1 protein (100 nM, Jeko-1 cells, 24 hours) came out at 52%. Besides, the inhibition at 10 µM on GSPT1 protein (10 μM, Jeko-1 cells, 24 hours) was found to be 80%.
With `CC(C)(C)OC(=O)NC(C(=O)NCc1ccc2c(c1)CN(C1CCC(=O)NC1=O)C2=O)c1ccccc1Cl` (stereo not shown) [Compound 4-200, Tert butyl (1-(2-chlorophenyl)-2-((2-(2,6-dioxypiperidin-3-yl)-1-oxoisoindoline-5-yl)methyl)amino)-2-oxoethyl) carbamate], the IC50 with HNT-34 cells stood at 3.2 nM; in the experiment with HL-60 cells it was 8.3 nM. The inhibition at 0.1 µM at GSPT1 protein (100 nM, Jeko-1 cells, 24 hours) amounted to 99%. Also, at GSPT1 protein (10 μM, Jeko-1 cells, 24 hours), the inhibition at 10 µM worked out at 100%.
Take `CC(C)(C)OC(=O)N[C@H](C(=O)NCc1ccc2c(c1)CN(C1CCC(=O)NC1=O)C2=O)C1CCCC1` (stereo partly drawn) [Compound 5-57, Tert butyl ((1S)-1-cyclopentyl-2-((2-(2,6-dioxopyridin-3-yl)-1-oxoisoidoline-5-yl)methyl)amino)-2-oxoethyl) carbamate]: the IC50 is 7.5 nM with HNT-34 cells and 15 nM in the experiment on HL-60 cells. The inhibition at 0.1 µM at GSPT1 protein (100 nM, Jeko-1 cells, 24 hours) was 75%. The inhibition at 10 µM on GSPT1 protein (10 μM, Jeko-1 cells, 24 hours) was 98.1%.
The like results for `CN(C(=O)OC(C)(C)C)[C@@H](C(=O)NCc1ccc2c(c1)CN(C1CCC(=O)NC1=O)C2=O)c1ccccc1` (stereo partly drawn) [Compound 5-31, Tert butyl ((1R)-2-((2-(2,6-dioxypiperidin-3-yl)-1-oxoisoindoline-5-yl)methyl)amino)-2-oxo-1-phenylethy 1) (methyl) carbamate] were, in that order, 6.6 nM, 12.5 nM, 84% and 99%.
Take `CC(C)OC(=O)N[C@@H](CC1CCCCC1)C(=O)NCc1ccc2c(c1)CN(C1CCC(=O)NC1=O)C2=O` (stereo partly drawn) [Compound 5-94, Isopropyl ((2S)-3-cyclohexyl-1-((2-(2,6-dioxypiperidin-3-yl)-1-oxoisoindolin-5-yl)methyl)amino)-1-oxopropan-2-yl) carbamate]: the IC50 in the experiment with HNT-34 cells came to 7.4 nM. On GSPT1 protein, the inhibition at 0.1 µM was 85% and the inhibition at 10 µM came out at 95%. Moreover, the IC50 in the experiment on HL-60 cells came out at 12.8 nM.
For `CN(C(=O)OC(C)(C)C)[C@H](C(=O)NCc1ccc2c(c1)CN(C1CCC(=O)NC1=O)C2=O)c1ccccc1` (stereo partly drawn) [Compound 4-135, Tert butyl ((1S)-2-((2-(2,6-dioxypiperidin-3-yl)-1-oxoisoindoline-5-yl)methyl)amino)-2-oxo-1-phenylethy 1) (methyl) carbamate], the results for the IC50 in the experiment with HNT-34 cells and with HL-60 cells were 6.2 nM and 14.3 nM, respectively. Besides, at GSPT1 protein (100 nM, Jeko-1 cells, 24 hours), the inhibition at 0.1 µM is 80%. Further, the inhibition at 10 µM on GSPT1 protein (10 μM, Jeko-1 cells, 24 hours) was 93%.
For `O=C1CCC(N2Cc3cc(CNC(=O)[C@H](CC4CCCCC4)NC(=O)C4CCCC4)ccc3C2=O)C(=O)N1` (stereo partly shown) [Compound 5-54], the inhibition at 0.1 µM at GSPT1 protein (100 nM, Jeko-1 cells, 24 hours) was found to be 41.3%. For the same compound, at GSPT1 protein (10 μM, Jeko-1 cells, 24 hours), the inhibition at 10 µM worked out at 87.1%.
The like results for `O=C1CCC(N2Cc3cc(CNC(=O)C(NC(=O)C4CCCC4)c4ccccc4)ccc3C2=O)C(=O)N1` (stereo not shown) [Compound 5-30] were, in that order, 59% and 93%.
In the case of `CC(C)(C)OC(=O)N[C@H](C(=O)NCc1ccc2c(c1)CN(C1CCC(=O)NC1=O)C2=O)c1ccc(Br)cc1` (stereo partly drawn) [Compound 5-7, Tert butyl ((1S)-1-(4-bromophenyl)-2-((2-(2,6-dioxopyridin-3-yl)-1-oxoisoidoline-5-yl)methyl)amino)-2-oxoethyl) carbamate], the IC50 in the experiment on HNT-34 cells stood at 8.7 nM; in the experiment on HL-60 cells, 12.4 nM. The inhibition at 0.1 µM on GSPT1 protein (100 nM, Jeko-1 cells, 24 hours) was 94%. At GSPT1 protein (10 μM, Jeko-1 cells, 24 hours), the inhibition at 10 µM is 100%.
